The subject of test [1] is CCRF-CEM. The test can be described thus: Cytoprotective activity against DEM-induced ROS production in human CEM cells assessed as prevention of loss of mitochondrial potential pretreated for 16 hrs prior DEM challenge measured after 120 mins by TMRM-based flow cytometry (reference value: 94%). The test is classed as functional, cell-based. Background: Flow cytometry measures light scatter and fluorescence of single cells or particles in a stream.

Test [2] deals with CCRF-CEM. The test can be described thus: Cytoprotective activity against DEM-induced ROS production in human CEM cells assessed as cells with intact mitochondrial potential at 2.5 uM pretreated for 16 hrs prior DEM challenge measured after 120 mins by TMRM-based flow cytometry (reference value: 94%). The test is classed as functional.
For test [3], the system named is CCRF-CEM. The test can be described thus: Cytoprotective activity against DEM-induced ROS production in human CEM cells treated prior DEM challenge after 16 hrs by DCFH-DA-based flow cytometry relative to alpha-tocopherol. It counts as functional, cell-based.
Test [4] concerns CCRF-CEM. The test can be described thus: Cytoprotective activity against DEM-induced ROS production in human CEM cells assessed as reduction in lipid peroxidation at 2.5 to 5 uM treated prior DEM challenge measured after 16 hrs by C11-BODIPY581/591-based flow cytometry relative to alpha-tocopherol. The test is classed as functional, cell-based.
The test system of test [5] is CCRF-CEM. The test can be described thus: Cytoprotective activity against DEM-induced ROS production in human CEM cells at 1 to 5 uM pretreated for 16 hrs prior DEM challenge measured after 5.5 hrs by trypan blue exclusion method. The test is classed as functional, cell-based.
Test [6] has as its system CCRF-CEM. The test can be described thus: Cytoprotective activity against DEM-induced ROS production in human CEM cells assessed as cells with intact mitochondrial potential at 1 uM pretreated for 16 hrs prior DEM challenge measured after 120 mins by TMRM-based flow cytometry (reference value: 94%). The test is classed as functional.

These results are taken from ChEMBL document CHEMBL2034902, “Simplified bicyclic pyridinol analogues protect mitochondrial function” (2012).

Activity calls are given as the source filed them. The rule behind the calls is not given here.

For `CCCCCCCCCCCCCCCCc1nc2c(c(C)c1OC(C)=O)CCN2C`, the values for the Activity entry in the test with CCRF-CEM [1], with CCRF-CEM [2] and with CCRF-CEM [6] were “Dose-dependent effect”, 65% and 50%, respectively. Besides, the result in the test on CCRF-CEM [3], with CCRF-CEM [4] and in the test with CCRF-CEM [5] was Active.

Consider `Cc1c(C)c2c(c(C)c1O)CC[C@@](C)(CCC[C@H](C)CCC[C@H](C)CCCC(C)C)O2`, for which the outcome in the test with CCRF-CEM [3], in the test with CCRF-CEM [4] and with CCRF-CEM [5] was Active.

As for `CCCCCCCCCCc1nc2c(c(C)c1OC(C)=O)CCN2C`, the Activity result in the test with CCRF-CEM [1] is “Dose-dependent effect”; in the test on CCRF-CEM [2] it was 82%; with CCRF-CEM [3] it was “Dose-dependent effect”; in the test with CCRF-CEM [6], 75%. Besides, the outcome in the test with CCRF-CEM [4] and in the test on CCRF-CEM [5] was Active.

Consider `CCCCCCCCCCCCCCCCc1nc2c(c(C)c1O)CCN2C.O=C(O)C(F)(F)F`, for which the Activity entry was “Dose-dependent effect” in the test with CCRF-CEM [1], 70% in the test with CCRF-CEM [2] and 46% in the test with CCRF-CEM [6]. In addition, the result in the test on CCRF-CEM [3] and in the test with CCRF-CEM [4] was Active. The result in the test with CCRF-CEM [5] was inactive.

For the molecule `CCCCCCCCCCc1nc2c(c(C)c1O)CCN2C.O=C(O)C(F)(F)F`, the Activity result is “Dose-dependent effect” with CCRF-CEM [1], 84% in the test with CCRF-CEM [2], “Dose-dependent effect” with CCRF-CEM [3] and 80% in the test on CCRF-CEM [6]. The result with CCRF-CEM [4] and in the test on CCRF-CEM [5] was Active.

As to `CCCCCc1nc2c(c(C)c1O)CCN2C.O=C(O)C(F)(F)F`, the Activity result in the test with CCRF-CEM [1] was “Dose-dependent effect”; in the test with CCRF-CEM [2], 63%; in the test with CCRF-CEM [6] it was 40%. The result in the test on CCRF-CEM [3] and with CCRF-CEM [4] was inactive. Also, in the test with CCRF-CEM [5], the outcome was Active.

Take `CCCCCc1nc2c(c(C)c1OC(C)=O)CCN2C`: the Activity result in the test on CCRF-CEM [1] is “Dose-dependent effect”; in the test on CCRF-CEM [2], 60%; with CCRF-CEM [6] it was 30%. The outcome in the test on CCRF-CEM [3] and in the test on CCRF-CEM [4] was inactive. For the same molecule, the outcome in the test with CCRF-CEM [5] was Active.
